Assay results published in the NIST ThermoML archive (doi:10.1016/j.fluid.2014.05.023).
“And” between values parts separate entries of the source, which are not always exact repeats. Equal entries are not always repeated. Numbers after ± are expanded uncertainties.

Test: activity coefficient (dimensionless); of the first substance listed, at infinite dilution; xn = mol fraction of the nth substance listed
Settings: 101 kPa, Liquid, Chromatography, x1 = 0

Row | SMILES | activity coefficient (273.35 K) | activity coefficient (283.15 K) | activity coefficient (293.15 K) | activity coefficient (298.15 K) | activity coefficient (303.15 K) | activity coefficient (313.15 K) | activity coefficient (323.15 K) | activity coefficient (333.15 K) | activity coefficient (341.15 K) | activity coefficient (351.15 K) | activity coefficient (361.25 K)
1 | CCCC(=O)OCC [ethyl butanoate] + O | – | – | 993 ± 68 | – | 1090 ± 75 | 1150 ± 79 | 1180 ± 81 | 1180 ± 81 | 1110 ± 120 | 1030 ± 110 | –
2 | CCOC(=O)CC [ethyl propanoate] + O | – | – | 252 ± 17 | – | 291 ± 20 | 312 ± 21 | 329 ± 23 | 343 ± 24 | 332 and 328 | 366 and 321 | 283 ± 57
3 | CCCCOC(C)=O [butyl ethanoate] + O | 613 ± 42 | 799 ± 55 | 942 ± 65 | 1040 ± 72 | 1080 ± 75 | 1140 ± 79 | 1160 ± 80 | 1140 ± 78 | – | – | –

Other lines, results leading:

Row | activity coefficient (273.35 K) | activity coefficient (283.15 K) | activity coefficient (293.15 K) | activity coefficient (298.15 K) | activity coefficient (303.15 K) | activity coefficient (313.15 K) | activity coefficient (323.15 K) | activity coefficient (333.15 K) | activity coefficient (341.15 K) | activity coefficient (351.15 K) | activity coefficient (361.25 K) | SMILES
4 | 172 ± 12 | 217 ± 15 | 274 and 257 | 261 and 270 | 281 ± 19 | 302 ± 21 | 319 ± 22 | 321 ± 22 | – | – | – | CCCOC(C)=O [propyl ethanoate] + O
5 | 44.5 ± 3 | 54.9 ± 3.8 | 64.8 and 68 | 69.2 ± 4.7 | 73.6 ± 5 | 80.1 ± 5.5 | – | – | – | – | – | CCOC(C)=O [ethyl acetate] + O
